# Experimental data published in article PMC7802075 (ACS Infectious Diseases, 2020).
# Where a SMILES comes first, the peptide text is derived from it.
# Target: T1, LmjIPCS (inositol phosphorylceramide synthase from L. major) (Leishmania major, UniProt E9AFX2)
# T1 sequence (E9AFX2 1-338): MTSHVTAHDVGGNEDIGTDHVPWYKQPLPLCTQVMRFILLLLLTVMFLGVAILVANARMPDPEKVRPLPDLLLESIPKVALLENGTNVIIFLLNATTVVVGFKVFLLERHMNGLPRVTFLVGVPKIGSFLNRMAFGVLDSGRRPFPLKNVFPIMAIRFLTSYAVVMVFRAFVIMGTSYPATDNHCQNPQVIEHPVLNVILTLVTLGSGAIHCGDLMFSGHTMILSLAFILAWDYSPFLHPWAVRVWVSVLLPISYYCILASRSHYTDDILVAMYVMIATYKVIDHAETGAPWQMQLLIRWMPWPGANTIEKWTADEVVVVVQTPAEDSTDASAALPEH
# Assay: biochemical
# Format: biochemical
# Parameters: inhibition: dose or concentration left out as unconfirmed
# Settings: not given
row,Molecule,20mM inhibition LmjIPCS [%]
1,C[C@@H]1[C@H](O)[C@@H](C)/C=C/C=C/CC/C=C/C=C/C=C/C=C/C(O[C@H]2O[C@H](C)[C@@H](O)[C@H](N)[C@@H]2O)CC2O[C@](O)(CC(O)C(O)CCC(O)CC(O)CC(O)CC(=O)O[C@H]1C)CC(O)C2C(=O)O (stereo partly drawn) [NYSTATIN],32
2,CN1C(=O)CC[C@H]1c1cccnc1 [COTININE],34
3,CNC(=O)Oc1ccc2c(c1)[C@]1(C)CCN(C)[C@@H]1N2C [ESERINE],9
4,O=C(O)C(O)C(O)C(=O)O.OCc1cccnc1 (stereo not drawn) [NICOTINYL],6
5,MERBROMIN,-21
6,C[C@H]1C[C@H]2[C@@H]3CCC4=CC(=O)C=C[C@]4(C)[C@@]3(F)[C@@H](O)C[C@]2(C)[C@@]1(O)C(=O)CO [BETAMETHASONE],45
7,CC[C@H]1OC(=O)[C@H](C)[C@@H](O[C@H]2C[C@@](C)(OC)[C@@H](O)[C@H](C)O2)[C@H](C)[C@@H](O[C@@H]2O[C@H](C)C[C@H](N(C)C)[C@H]2O)[C@](C)(O)C[C@@H](C)[C@@H]2N[C@@H](COCCOC)O[C@H]([C@H]2C)[C@]1(C)O [DIRITHROMYCIN],47
8,O=C1CCO1 [BETA-PROPIOLACTONE],1.45
9,COc1ccc2c(c1)CC[C@@H]1[C@@H]2CC[C@]2(C)[C@@H](O)CC[C@@H]12 [ESTRADIOL METHYL ETHER],40
10,c1ccc(CN(CC2=NCCN2)c2ccccc2)cc1 [ANTAZOLINE],61
11,Oc1c(Cl)cc(Cl)c2cccnc12 [CHLOROXINE],37

# Same assay, conditions: NINDS set screen, single concentration printed as 20mM
row,20mM inhibition LmjIPCS [%],Molecule
1,59,CC[C@H]1OC(=O)[C@H](C)[C@@H](O[C@H]2C[C@@](C)(OC)[C@@H](O)[C@H](C)O2)[C@H](C)[C@@H](O[C@@H]2O[C@H](C)C[C@H](N(C)C)[C@H]2O)[C@](C)(O)C[C@@H](C)/C(=N\OCOCCOC)[C@H](C)[C@@H](O)[C@]1(C)O [ROXITHROMYCIN]
2,55,CSc1ccc2c(c1)C(N1CCN(C)CC1)Cc1ccccc1S2 (stereo not drawn) [METHIOTHEPIN]
3,44,CS(=O)(=O)OCCCCOS(C)(=O)=O [BUSULFAN]
4,68,CC(=O)Oc1ccc2c(c1)CC[C@@H]1[C@@H]2CC[C@]2(C)[C@@H](O)CC[C@@H]12 [ESTRADIOL ACETATE]

# Same assay, conditions: NINDS set screen; read-out: inhibition LmjIPCS
row,inhibition [%],Molecule
1,29,CC(=O)OCC(COC(C)=O)OC(C)=O [TRIACETIN]
2,18,CCCCNc1ccc(C(=O)OCCN(C)C)cc1 [TETRACAINE]
3,-2,CS(=O)(=O)c1ccc(C2=C(c3ccccc3)C(=O)OC2)cc1 [ROFECOXIB]
4,0.104,Nc1ccc(S(=O)(=O)Nc2ccnn2-c2ccccc2)cc1 [SULFAPHENAZOLE]
5,22,CCC(=O)O[C@H]1[C@H](O[C@@H]2[C@@H](C)[C@H](O[C@H]3C[C@@](C)(OC)[C@@H](O)[C@H](C)O3)[C@@H](C)C(=O)O[C@H](CC)[C@@](C)(O)[C@H](O)[C@@H](C)C(=O)[C@H](C)C[C@@]2(C)O)O[C@H](C)C[C@@H]1N(C)C [ERYTHROMYCIN ESTOLATE]
6,0.0172,Cn1c([N+](=O)[O-])cnc1COC(N)=O [RONIDAZOLE]
7,-5,CCN(CC)CCNC(=O)c1cc(S(C)(=O)=O)ccc1OC [TIAPRIDE]
8,-2.28,O=c1[nH]c(=O)n([C@H]2C[C@H](O)[C@@H](CO)O2)cc1F [FLOXURIDINE]
9,12,O=C(NCO)c1cccnc1 [N-HYDROXYMETHYLNICOTINAMIDE]
10,13,CCCN(CCC)S(=O)(=O)c1ccc(C(=O)O)cc1 [PROBENECID]

# Same assay, conditions: read-out: 20mM inhibition LmjIPCS
row,Molecule,inhibition at 20000 µM [%]
1,CO[C@@H]1C[C@@H](C[C@H]2CC[C@H](C)[C@H]([C@@H](C)C(=O)O)O2)O[C@]2(O[C@](C)([C@H]3CC[C@@](C)([C@@H]4O[C@@H]([C@H]5O[C@@](O)(CO)[C@H](C)C[C@@H]5C)C[C@@H]4C)O3)C[C@H]2C)[C@@H]1C [NIGERICIN],-7.41
2,CO[C@H]1[C@H](O)[C@H](O[C@H]2CC[C@@]3(C=O)[C@H](CC[C@@H]4[C@@H]3CC[C@]3(C)[C@@H](C5=CC(=O)OC5)CC[C@]43O)C2)O[C@@H](C)[C@@H]1O [PERUVOSIDE],12
3,OC(CCN1CCCC1)(c1ccccc1)C1CCCCC1 (stereo not drawn) [PROCYCLIDINE],22
4,O=C1C=C2C=C[C@@H]3C[C@@]2(O1)[C@H]1CCCCN31 [SECURININE],11
5,CC[N+](CC)(CC)CCOc1cccc(OCC[N+](CC)(CC)CC)c1OCC[N+](CC)(CC)CC [GALLAMINE TRIETHIODIDE],-1.76
6,O=C(O)c1cc(-c2ccc(F)cc2F)ccc1O [DIFLUNISAL],-4.4
7,O=C(O)c1cc(=O)c2ccccc2[nH]1 [KYNURENIC ACID],6
8,O=C(O)c1ccccc1Nc1cccc(C(F)(F)F)c1 [FLUFENAMIC ACID],-16
9,CC(C)NCC(O)c1cc(O)cc(O)c1 (stereo not drawn) [METAPROTERENOL],7
10,CC1(C)O[C@@H]2C[C@H]3[C@@H]4C[C@H](F)C5=CC(=O)CC[C@]5(C)[C@H]4[C@@H](O)C[C@]3(C)[C@]2(C(=O)CO)O1 [FLURANDRENOLIDE],-15
11,O=C1C[C@@H]2OCC=C3CN4CC[C@]56c7ccccc7N1[C@H]5[C@H]2[C@H]3C[C@H]46 [STRYCHNINE],3
12,"COc1ccc2c(c1OC)C(=O)OC2[C@H]1c2cc3c(cc2CCN1C)OCO3 (stereo in doubt) [1R,9S-HYDRASTINE]",10
13,C[C@H]1O[C@@H](O[C@H]2[C@@H](O)C[C@H](O[C@H]3[C@@H](O)C[C@H](O[C@H]4CC[C@@]5(C)[C@H](CC[C@@H]6[C@@H]5C[C@@H](O)[C@]5(C)[C@@H](C7=CC(=O)OC7)CC[C@]65O)C4)O[C@@H]3C)O[C@@H]2C)C[C@H](O)[C@@H]1O [DIGOXIN],5.32
14,CC(COc1ccccc1)NC(C)C(O)c1ccc(O)cc1 (stereo not drawn) [ISOXSUPRINE],32
15,NC(=O)N/N=C/c1ccc([N+](=O)[O-])o1 [NITROFURAZONE],14
16,CC(=O)c1c(O)c(C)c(O)c2c1OC1=CC(=O)C(C(C)=O)C(=O)C12C (stereo not drawn) [USNIC ACID],29
17,CSCC[C@H](NC=O)C(=O)N[C@@H](CC(C)C)C(=O)N[C@@H](Cc1ccccc1)C(=O)O,19
18,C[C@@H]1O[C@@H](O[C@H]2C[C@@H](O)[C@]3(CO)[C@H]4[C@H](O)C[C@]5(C)[C@@H](C6=CC(=O)OC6)CC[C@]5(O)[C@@H]4CC[C@]3(O)C2)[C@H](O)[C@H](O)[C@H]1O [OUABAIN],1.15
19,CC(=O)OCC(=O)[C@@]1(O)CC[C@H]2[C@@H]3CCC4=CC(=O)C=C[C@]4(C)[C@H]3[C@@H](O)C[C@@]21C [PREDNISOLONE ACETATE],25
20,CCC[C@H](N[C@@H](C)C(=O)N1[C@H](C(=O)O)C[C@@H]2CCCC[C@@H]21)C(=O)OCC [PERINDOPRIL],2
21,CCOC(=O)[C@H](CCc1ccccc1)N[C@@H](C)C(=O)N1CCC[C@H]1C(=O)O,-20
22,CC(=O)Oc1ccccc1C(=O)O [ASPIRIN],23
23,C[C@]12CC[C@@H]3c4ccc(O)cc4CC[C@H]3[C@@H]1CC[C@@H]2O [ESTRADIOL],-5.65
24,COc1cccc(OC)c1C(=O)N[C@@H]1C(=O)N2[C@@H]1SC(C)(C)[C@@H]2C(=O)O [METHICILLIN],17
25,Cn1cnc2c1c(=O)[nH]c(=O)n2C [THEOBROMINE],24
26,O=C(O)c1cccnc1 [NIACIN],15
27,OCc1ccccc1O[C@@H]1O[C@H](CO)[C@@H](O)[C@H](O)[C@H]1O [SALICIN],14
28,COc1cc2c3cc1Oc1c(OC)c(OC)cc4c1[C@@H](Cc1ccc(O)c(c1)Oc1ccc(cc1)C[C@@H]3N(C)CC2)N(C)CC4 [BERBAMINE],18

# Same assay, conditions: read-out: inhibition LmjIPCS
row,inhibition [%],Molecule
1,28,CC[C@H](C)C(=O)O[C@H]1C[C@H](O)C=C2C=C[C@H](C)[C@H](CC[C@@H](O)C[C@@H](O)CC(=O)O)[C@H]21 [PRAVASTATIN]
2,10,Nc1ncnc2c1ncn2[C@@H]1O[C@H](CO)[C@@H](O)[C@@H]1O [VIDARABINE]
3,13,COc1ccc(Cl)cc1C(=O)NCCc1ccc(S(=O)(=O)NC(=O)NC2CCCCC2)cc1 [GLYBURIDE]
4,29,COc1cc2c(cc1OC)[C@@H]1Cc3ccc(OC)c(OC)c3CN1CC2 [TETRAHYDROPALMATINE]
5,-15,COC(=O)C1=C(C)NC(C)=C(C(=O)OCCN(C)Cc2ccccc2)C1c1cccc([N+](=O)[O-])c1 (stereo not drawn) [NICARDIPINE]
6,20,Cc1noc(NS(=O)(=O)c2ccc(N)cc2)c1C [SULFISOXAZOLE]
7,17,O=C1C[C@@H](c2ccc(O)cc2)Oc2cc(O)cc(O)c21 [NARINGENIN]

# Same assay, conditions: screening of NINDS set, sheet Screen 1; read-out: inhibition LmjIPCS
row,inhibition [%],Molecule
1,6.34,NCCSSCCN [CYSTAMINE]
2,7,Nc1ccc(C(=O)NCC(=O)O)cc1 [AMINOHIPPURIC ACID]
3,4.68,Cc1c(Cl)cccc1Nc1ccccc1C(=O)O [TOLFENAMIC ACID]
4,3.24,Cc1onc(-c2ccccc2)c1-c1ccc(S(N)(=O)=O)cc1 [VALDECOXIB]
5,7,CC(C(=O)O)c1ccc2c(c1)[nH]c1ccc(Cl)cc12 (stereo not drawn) [CARPROFEN]
6,10,COC(=O)[C@H](Cc1ccccc1)NC(=O)[C@@H](N)CC(=O)O (H-Asp-Phe-OMe)
7,11,NC1=NCCN1CC(=O)O [CYCLOCREATINE]

# Same assay, conditions: single concentration 20mM as printed; screening of NINDS set, sheet Screen 1
row,20mM inhibition LmjIPCS [%],Molecule
1,10,SPIRAMYCIN
2,11,N=C(N)NC(=N)Nc1ccccc1 [1-PHENYLBIGUANIDE]
